Legend:
Format in all cases: in vivo
[1] = test system: Myzus persicae (Green Peach Aphid); experiment: Example B13: activity against Myzus persicae (green peach aphid), 96-well sucrose solution; details: 120 h, application rate 50 ppm, 5 days after infestation
From the text: Example B13: Activity Against Myzus persicae (Green Peach Aphid)
Test compounds prepared from 10,000 ppm DMSO stock solutions were applied by a liquid handling robot into 96-well microtiter plates and mixed with a sucrose solution. Parafilm was stretched over the 96-well microtiter plate and a plastic stencil with 96 holes was placed onto the plate. Aphids were sieved into the wells directly onto the Parafilm. The infested plates were closed with a gel blotting card and a second plastic stencil and then turned upside down. The samples were assessed for mortality 5 days after infestation.

[2] = test system: Spodoptera littoralis (Egyptian Cotton Leaf Worm); experiment: Example B9: Spodoptera littoralis (Egyptian cotton leaf worm), cotton leaf discs sprayed, L1 larvae; details: foliar, 72 h, application rate 200 ppm, 3 days after infestation
Experimental: Example B9: Spodoptera littoralis (Egyptian Cotton Leaf Worm)
Cotton leaf discs were placed onto agar in 24-well microtiter plates and sprayed with aqueous test solutions prepared from 10,000 ppm DMSO stock solutions. After drying the leaf discs were infested with five L1 larvae. The samples were assessed for mortality, anti-feeding effect, and growth inhibition in comparison to untreated samples 3 days after infestation. Control of Spodoptera littoralis by a test sample is given when at least one of the three categories (i.e. mortality, anti-feedant effect, and growth inhibition) is higher than the untreated sample.

[3] = test system: Plutella xylostella (Diamondback Moth); experiment: Example B14: activity against Plutella xylostella (diamondback moth), 96-well artificial diet; details: 216 h, application rate 500 ppm, 9 days after infestation
Experimental: Example B14: Activity Against Plutella xylostella (Diamondback Moth)
96-well microtiter plates containing artificial diet were treated with aqueous test solutions, prepared from 10,000 ppm DMSO stock solutions, by a liquid handling robot. After drying, eggs (30 per well) were infested onto a netted lid which was suspended above the diet. The eggs hatch and L1 larvae move down to the diet. The samples were assessed for mortality 9 days after infestation.
The following compounds gave an effect of at least 80% average mortality at an application rate of 500 ppm: […]

[4] = test system: Myzus persicae (Green Peach Aphid); experiment: Example B8: Myzus persicae (green peach aphid), intrinsic activity; details: 120 h, test rate 12 ppm, sucrose solution, 24-well, 5 days after infestation
From the text: Example B8: Myzus persicae (Green Peach Aphid), Intrinsic Activity
Test compounds prepared from 10,000 ppm DMSO stock solutions were applied by pipette into 24-well microtiter plates and mixed with sucrose solution. The plates were closed with a stretched Parafilm. A plastic stencil with 24 holes was placed onto the plate and infested pea seedlings were placed directly on the Parafilm. The infested plate was closed with a gel blotting paper and another plastic stencil and then turned upside down. The samples were assessed for mortality 5 days after infestation.

[5] = test system: Plutella xylostella (Diamond Back Moth); experiment: Example B5: Plutella xylostella (diamond back moth), artificial diet, 24-well, eggs; details: 192 h, application rate 200 ppm, 8 days after infestation, read-out: effect in at least one of the two categories (mortality or growth inhibition)
Experimental: Example B5: Plutella xylostella (Diamond Back Moth)
24-well microtiter plates with artificial diet were treated with aqueous test solutions prepared from 10,000 ppm DMSO stock solutions by pipetting. After drying, Plutella eggs were pipetted through a plastic stencil onto a gel blotting paper and the plate was closed with it. The samples were assessed for mortality and growth inhibition in comparison to untreated samples 8 days after infestation. The following compounds gave an effect of at least 80% in at least one of the two categories (mortality or growth inhibition) at an application rate of 200 ppm: […]

[6] = test system: Euschistus heros (Neotropical Brown Stink Bug); experiment: Example B2: Euschistus heros (neotropical brown stink bug), soybean leaves sprayed, N2 nymphs; details: 120 h, application rate 200 ppm, 5 days after infestation, read-out: effect in at least one of the two categories (mortality or growth inhibition)
Experimental: Example B2: Euschistus heros (Neotropical Brown Stink Bug)
Soybean leaves on agar in 24-well microtiter plates were sprayed with aqueous test solutions prepared from 10,000 ppm DMSO stock solutions. After drying the leaves were infested with N2 nymphs. The samples were assessed for mortality and growth inhibition in comparison to untreated samples 5 days after infestation.
(§1) The following compounds gave an effect of at least 80% in at least one of the two categories (mortality or growth inhibition) at an application rate of 200 ppm: […]

[7] = test system: Myzus persicae (Green Peach Aphid); experiment: Example B6: Myzus persicae (green peach aphid), feeding/contact activity; details: 144 h, application rate 200 ppm, 6 days after infestation
Experimental: Example B6: Myzus persicae (Green Peach Aphid):Feeding/Contact Activity
Sunflower leaf discs were placed onto agar in a 24-well microtiter plate and sprayed with aqueous test solutions prepared from 10,000 ppm DMSO stock solutions. After drying, the leaf discs were infested with an aphid population of mixed ages. The samples were assessed for mortality 6 days after infestation.

[8] = test system: Diabrotica Balteata (Corn Root Worm); experiment: Example B1: Diabrotica balteata (corn root worm), maize sprouts sprayed, L2 larvae; details: 96 h, application rate 200 ppm, 4 days after infestation, read-out: effect in at least one of the two categories (mortality or growth inhibition)
Experimental: Example B1: Diabrotica Balteata (Corn Root Worm)
Maize sprouts placed onto an agar layer in 24-well microtiter plates were treated with aqueous test solutions prepared from 10,000 ppm DMSO stock solutions by spraying. After drying, the plates were infested with L2 larvae (6 to 10 per well). The samples were assessed for mortality and growth inhibition in comparison to untreated samples 4 days after infestation.
as §1

[9] = test system: Spodoptera littoralis (Egyptian Cotton Leaf Worm); experiment: Example B10: Spodoptera littoralis (Egyptian cotton leaf worm), uptake by lettuce roots from agar, eggs; details: 144 h, test rate 12.5 ppm, lettuce root uptake, 6 days after infestation, read-out: effect in at least one of the three categories (mortality, anti-feeding, or growth inhibition)
From the text: Example B10: Spodoptera littoralis (Egyptian Cotton Leaf Worm)
Test compounds were applied by pipette from 10,000 ppm DMSO stock solutions into 24-well plates and mixed with agar. Lettuce seeds were placed onto the agar and the multi well plate was closed by another plate which contained also agar. After 7 days the compound was absorbed by the roots and the lettuce grew into the lid plate. The lettuce leaves were then cut off into the lid plate. Spodoptera eggs were pipetted through a plastic stencil onto a humid gel blotting paper and the lid plate was closed with it. The samples were assessed for mortality, anti-feedant effect and growth inhibition in comparison to untreated samples 6 days after infestation.
The following compounds gave an effect of at least 80% in at least one of the three categories (mortality, anti-feeding, or growth inhibition) at a test rate of 12.5 ppm: […]

[10] = test system: Chilo suppressalis (Striped Rice Stemborer); experiment: Example B4: Chilo suppressalis (striped rice stemborer), artificial diet, L2 larvae; details: 144 h, application rate 200 ppm, 6 days after infestation
Experimental: Example B4: Chilo suppressalis (Striped Rice Stemborer)
24-well microtiter plates with artificial diet were treated with aqueous test solutions prepared from 10,000 ppm DMSO stock solutions by pipetting. After drying, the plates were infested with L2 larvae (6-8 per well). The samples were assessed for mortality, anti-feeding effect, and growth inhibition in comparison to untreated samples 6 days after infestation. Control of Chilo suppressalis by a test sample is given when at least one of the categories (i.e. mortality, anti-feedant effect, and growth inhibition) is higher than the untreated sample.

CC(NC(=O)c1cc(C2CC2)cc(C(F)(F)F)c1)c1ncnn1-c1ncccn1 (centres unmarked) [P24, 3-cyclopropyl-N-[1-(2-pyrimidin-2-yl-1,2,4-triazol-3-yl)ethyl]-5-(trifluoromethyl)benzamide]
≥ 80%: mortality at 50 ppm [1] | percent control (mortality, anti-feedant effect or growth inhibition) at 200 ppm [2] | mortality at 500 ppm [3] | mortality at 12 ppm [4] | percent effect (mortality or growth inhibition) at 200 ppm [5] | percent effect (mortality or growth inhibition) at 200 ppm [6] | mortality at 200 ppm [7] | percent effect (mortality or growth inhibition) at 200 ppm [8]

CC(c1ncnn1-c1ncccn1)N(CC1CC1)C(=O)c1cc(C2CC2)nc(C(F)(F)F)c1 (centres unmarked) [P55, 2-cyclopropyl-N-(cyclopropylmethyl)-N-[1-(2-pyrimidin-2-yl-1,2,4-triazol-3-yl)ethyl]-6-(trifluoromethyl)pyridine-4-carboxamide]
≥ 80%: mortality at 50 ppm [1] | mortality at 500 ppm [3] | mortality at 12 ppm [4] | percent effect (mortality or growth inhibition) at 200 ppm [5] | percent effect (mortality or growth inhibition) at 200 ppm [6] | percent effect (mortality or growth inhibition) at 200 ppm [8] | percent effect (mortality, anti-feeding or growth inhibition) at 12.5 ppm [9]

CC(NC(=O)c1cc(OCC(F)F)cc(C2CC2)c1)c1ncnn1-c1ncccn1 (centres unmarked) [P61, 3-cyclopropyl-5-(2,2-difluoroethoxy)-N-[1-(2-pyrimidin-2-yl-1,2,4-triazol-3-yl)ethyl]benzamide]
≥ 80%: percent control (mortality, anti-feedant effect or growth inhibition) at 200 ppm [2] | mortality at 12 ppm [4] | percent effect (mortality or growth inhibition) at 200 ppm [5] | percent effect (mortality or growth inhibition) at 200 ppm [6] | mortality at 200 ppm [7] | percent control (mortality, anti-feedant effect or growth inhibition) at 200 ppm [10]

C[C@@H](c1ncnn1-c1ncccn1)N(CC1CC1)C(=O)c1cc(C2CC2)cc(C(F)(F)F)c1 [P73, 3-cyclopropyl-N-(cyclopropylmethyl)-N-[(1S)-1-(2-pyrimidin-2-yl-1,2,4-triazol-3-yl)ethyl]-5-(trifluoromethyl)benzamide]
≥ 80%: percent control (mortality, anti-feedant effect or growth inhibition) at 200 ppm [2] | mortality at 12 ppm [4] | percent effect (mortality or growth inhibition) at 200 ppm [5] | percent effect (mortality or growth inhibition) at 200 ppm [6] | mortality at 200 ppm [7] | percent effect (mortality or growth inhibition) at 200 ppm [8] | percent control (mortality, anti-feedant effect or growth inhibition) at 200 ppm [10]

CC(NC(=O)c1cc(C(F)(F)F)cc(C(C)(C)C#N)c1)c1ncnn1-c1ccccn1 (centres unmarked) [P75, 3-(1-cyano-1-methyl-ethyl)-N-[1-[2-(2-pyridyl)-1,2,4-triazol-3-yl]ethyl]-5-(trifluoromethyl)benzamide]
≥ 80%: percent control (mortality, anti-feedant effect or growth inhibition) at 200 ppm [2] | mortality at 12 ppm [4] | percent effect (mortality or growth inhibition) at 200 ppm [5] | percent effect (mortality or growth inhibition) at 200 ppm [8] | percent control (mortality, anti-feedant effect or growth inhibition) at 200 ppm [10]

Cc1nc(C(C)NC(=O)c2cc(C(F)(F)F)cc(C(C)(C)C#N)c2)n(-c2ncc(Br)cn2)n1 (centres unmarked) [P77, N-[1-[2-(5-bromopyrimidin-2-yl)-5-methyl-1,2,4-triazol-3-yl]ethyl]-3-(1-cyano-1-methyl-ethyl)-5-(trifluoromethyl)benzamide]
≥ 80%: percent control (mortality, anti-feedant effect or growth inhibition) at 200 ppm [2] | mortality at 12 ppm [4] | percent effect (mortality or growth inhibition) at 200 ppm [5] | percent effect (mortality or growth inhibition) at 200 ppm [6] | percent effect (mortality or growth inhibition) at 200 ppm [8] | percent control (mortality, anti-feedant effect or growth inhibition) at 200 ppm [10]

Cc1nc(C(C)NC(=O)c2cc(C3CC3)cc(C(F)(F)F)c2)n(-c2ncc(Br)cn2)n1 (centres unmarked) [P80, N-[1-[2-(5-bromopyrimidin-2-yl)-5-methyl-1,2,4-triazol-3-yl]ethyl]-3-cyclopropyl-5-(trifluoromethyl)benzamide]
≥ 80%: percent control (mortality, anti-feedant effect or growth inhibition) at 200 ppm [2] | percent effect (mortality or growth inhibition) at 200 ppm [5] | percent effect (mortality or growth inhibition) at 200 ppm [6] | percent effect (mortality or growth inhibition) at 200 ppm [8] | percent control (mortality, anti-feedant effect or growth inhibition) at 200 ppm [10]

CC(NC(=O)c1cc(C2CC2)cc(C(F)(F)F)c1)c1ncnn1-c1ncc(Br)cn1 (centres unmarked) [P81, N-[1-[2-(5-bromopyrimidin-2-yl)-1,2,4-triazol-3-yl]ethyl]-3-cyclopropyl-5-(trifluoromethyl)benzamide]
≥ 80%: percent control (mortality, anti-feedant effect or growth inhibition) at 200 ppm [2] | percent effect (mortality or growth inhibition) at 200 ppm [5] | percent effect (mortality or growth inhibition) at 200 ppm [6] | percent effect (mortality or growth inhibition) at 200 ppm [8] | percent control (mortality, anti-feedant effect or growth inhibition) at 200 ppm [10]

Cc1nc(C(C)NC(=O)c2cc(C3CC3)cc(C(F)(F)F)c2)n(-c2ncccn2)n1 (centres unmarked) [P86, 3-cyclopropyl-N-[1-(5-methyl-2-pyrimidin-2-yl-1,2,4-triazol-3-yl)ethyl]-5-(trifluoromethyl)benzamide]
≥ 80%: percent control (mortality, anti-feedant effect or growth inhibition) at 200 ppm [2] | mortality at 12 ppm [4] | percent effect (mortality or growth inhibition) at 200 ppm [5] | percent effect (mortality or growth inhibition) at 200 ppm [6] | percent effect (mortality or growth inhibition) at 200 ppm [8] | percent control (mortality, anti-feedant effect or growth inhibition) at 200 ppm [10]

CC(NC(=O)c1cc(C(F)(F)F)cc(C2(C)CC2(F)F)c1)c1ncnn1-c1ncccn1 (centres unmarked) [P88, 3-(2,2-difluoro-1-methyl-cyclopropyl)-N-[1-(2-pyrimidin-2-yl-1,2,4-triazol-3-yl)ethyl]-5-(trifluoromethyl)benzamide]
≥ 80%: mortality at 50 ppm [1] | percent control (mortality, anti-feedant effect or growth inhibition) at 200 ppm [2] | mortality at 12 ppm [4] | percent effect (mortality or growth inhibition) at 200 ppm [5] | percent effect (mortality or growth inhibition) at 200 ppm [6] | percent effect (mortality or growth inhibition) at 200 ppm [8] | percent control (mortality, anti-feedant effect or growth inhibition) at 200 ppm [10]
